The source of these data is patent US20200108112A1, “METHOD FOR PREPARING FENUGREEK EXTRACT AND PHARMACEUTICAL COMPOSITION COMPRISING FENUGREEK EXTRACT” (PRINCE PHARMACEUTICAL CO., LTD., priority 2017, published 2020).

In this assay the test system is HepG2 cells. Nature of the assay: Lipid droplets formation in HepG2 cells, formula of fenugreek extract (oil red-O / MTS index). Format: cell-based. As to conditions: lipid droplets induced group = 100%; treated 16 hours, then lipid droplets induced reagent 16 hours. How it is done: (1) HepG2 cells were seeded at 2.5×10^4 cells/well and incubated for 24 hours. (2) The incubated cells were divided into the following groups: Control group (CG) was added with 1% DMSO to treat the HepG2 cells for 16 hours, and then treated with cell culture medium for 16 hours. Lipid droplets induced group (LDIG) was added with 1% DMSO to treat the HepG2 cells for 16 hours, and then treated with 500 nM lipid droplets induced reagent for 16 hours. […] In addition, in a preferred embodiment, Vitamin E, SiO2, MAG and Fibersol-2 ® may be additionally added as desired. Each experiment group was respectively added to treat the HepG2 cells for 16 hours, and then treated with lipid droplets induced reagent for 16 hours. [table] (3) The above groups were examined by MTS assay and oil red-O stain, and the oil red OD value/MTS OD value was used as the index of lipid droplets.

For the compound `NCCS(=O)(=O)O` [experiment group 7, taurine], the “percentage of the lipid droplet formation” value is listed as 72.4%.
